The values that follow come from ChEMBL document CHEMBL5532732, “Structure-Based Rational Design of Constrained Peptides as TIM-3 Inhibitors” (ACS Med Chem Lett, 2024).

Calls of active or inactive are those of the source. Peptide text beside a SMILES is read from it.

The test system of one data set is Kasumi 1. In words: Antiproliferative activity against human Kasumi 1 cells at 1 uM. Format: functional, cell-based.
For a further data set, the system named is PBMC. The data set can be described thus: Induction of cytokine production in human PBMC cells assessed as increase in IFN-gamma level at 1 uM in the presence of TIM3 stimulation by ELISA method. Format: functional, cell-based.
Data set [1] can be described thus: Stability in simulated gastric fluids at pH 1.6 assessed as half life. Conditions: simulated gastric fluid. The format is ADME.
For the next data set, the species on record is Homo sapiens. The following applies: dose 250.0 nM.
Data set [2] in a line: Stability in human plasma assessed as compound remaining incubated for 2 hrs. Format: ADME, cell-free. The following applies: read-out: Stability.
The nature of data set [3]: Apparent permeability across basolateral to apical in human Caco-2 cells. Format: ADME, cell-based. For orientation: Caco-2 cells form a polarised layer with tight junctions and transporters.
Data set [4] in a line: Stability in simulated Intestinal fluids at pH 6.5 assessed as half life. Conditions: simulated intestinal fluid. The format is ADME.
Data set [5] can be described thus: Distribution coefficient, log D of the compound at pH 7.4 by shake flask method. Format: physicochemical. The following applies: octanol/water.
A short description of data set [6]: Stability in rat liver microsomes assessed as half life. The format is ADME, Microsome. (In general: Liver microsomes are vesicles of endoplasmic reticulum, rich in cytochrome P450 enzymes.)
Data set [7] is described as follows: Apparent permeability across apical to basolateral in human Caco-2 cells. The format is ADME, cell-based.

Description for Homo sapiens: Inhibition of recombinant human Gal-9 to biotinylated recombinant human TIM3 protein-protein interaction at 250 nM by ELISA method

One may read the half-life as the time needed for the level to fall by half in the phase considered. The Papp B→A is the apparent permeability from the basolateral to the apical side of a cell layer. As a reminder, the logD is the decadic logarithm of the distribution of all forms, ionised or not, between an organic phase and buffer at a given pH. Low values mean a more hydrophilic compound, high ones a more lipophilic compound. Broadly, the Papp A→B is how fast a substance crosses the layer from the apical side. For the compound `CC[C@H](C)[C@@H]1NC(=O)[C@H](Cc2ccc(O)cc2)NC(=O)[C@H](CS)NC(=O)[C@H](CO)NC(=O)[C@H](Cc2ccccc2)NC(=O)CNC(=O)[C@H](CO)NC(=O)[C@H](CO)NC(=O)[C@H](CO)NC(=O)[C@H](CS)NC(=O)[C@H](Cc2ccc(O)cc2)NC(=O)[C@H](CO)NC1=O` (cyclo(CSSSGFSCYISY)), in the data set with Kasumi 1, the result was inactive. Also, the result with PBMC was Active. Moreover, the values for the half-life in data set [1], in data set [4] and in [6] were 8.7 h, 16.4 h and 12.4 h, respectively. Besides, the inhibition result in the data set listed under Homo sapiens is “Active”. Moreover, the remaining at 2 h in [2] stood at 95.4%. Moreover, in data set [3], the Papp B→A was 12.5 ×10⁻⁶ cm/s. Besides, in data set [5], the logD was determined as 3.52. For the same compound, the Papp A→B in data set [7] worked out at 8.16 ×10⁻⁶ cm/s.
